Assay results published in ChEMBL document CHEMBL4507326, “Data for DCP probe TP-030-2” (2021).

Columns and labels:
[1] = target: GABA-A receptor; anion channel (Rattus norvegicus) (UniProt O09028+P15431+P18506+P18508+P19969+P20236+P23574+P23576+P28471+P28473+P30191+P62813+P63079+P63138+Q91ZM7+Q9ES14); assay: Inhibition of GABAA, Muscimol, Central at 10 µM in the Eurofins-Panlabs radioligand binding assay (Eurofins_assay_226500); format: protein-complex assay; conditions: Compound concentration 10.0 uM
[2] = target: Gamma-aminobutyric acid type B receptor subunit 1 (Homo sapiens) (UniProt Q9UBS5); assay: Inhibition of GABAB1A at compound concentration of 10.0 uM in the Eurofins-Panlabs radioligand binding assay (Eurofins_assay_228610); design: ligand concentration 4 nM; conditions: Compound concentration 10.0 uM
[3] = target: Melatonin receptor type 1A (Homo sapiens) (UniProt P48039); assay: Inhibition of Melatonin MT1 at 10 µM in the Eurofins-Panlabs radioligand binding assay (Eurofins_assay_251600); design: ligand concentration 0.05 nM; conditions: Compound concentration 10.0 uM
[4] = target: Prostaglandin E2 receptor EP4 subtype (Homo sapiens) (UniProt P35408); assay: Inhibition of Prostanoid EP4 at 10 µM in the Eurofins-Panlabs radioligand binding assay (Eurofins_assay_268420); design: ligand concentration 1 nM; conditions: Compound concentration 10.0 uM
[5] = target: Tyrosine-protein kinase BTK (Homo sapiens, UniProt Q06187); assay: BTK(BTK1CGF1) Takeda global kinase panel
[6] = target: Cyclin-dependent kinase 3 (Homo sapiens, UniProt Q00526); assay: CDK3(CDK3CGS1) Takeda global kinase panel
[7] = target: Inhibitor of nuclear factor kappa-B kinase subunit alpha (Homo sapiens, UniProt O15111); assay: IKKalpha(CHUKLGP1) Takeda global kinase panel
[8] = target: Tyrosine-protein kinase CSK (Homo sapiens, UniProt P41240); assay: CSK(CSK1LGF1) Takeda global kinase panel
[9] = target: Death-associated protein kinase 1 (Homo sapiens, UniProt P53355); assay: DAPK1(DAP1LGF1) Takeda global kinase panel
Myotonin-protein kinase = Myotonin-protein kinase (Homo sapiens, UniProt Q09013); assay: DMPK(DMPKLGF1) Takeda global kinase panel
Ephrin type-A receptor 5 = Ephrin type-A receptor 5 (Homo sapiens, UniProt P54756); assay: EphA5(EPA5MGF1) Takeda global kinase panel
Ephrin type-A receptor 6 = Ephrin type-A receptor 6 (Homo sapiens, UniProt Q9UF33); assay: EphA6(EPA6LGI5) Takeda global kinase panel
Ephrin type-B receptor 3 = Ephrin type-B receptor 3 (Homo sapiens, UniProt P54753); assay: EphB3(EPB3LGRJ) Takeda global kinase panel
Ephrin type-B receptor 4 = Ephrin type-B receptor 4 (Homo sapiens, UniProt P54760); assay: EphB4(EPB4LGY1) Takeda global kinase panel
[10] = target: Tyrosine-protein kinase Fes/Fps (Homo sapiens, UniProt P07332); assay: Fes(FES1LHY1) Takeda global kinase panel
[11] = target: Vascular endothelial growth factor receptor 1 (Homo sapiens, UniProt P17948); assay: FLT1(FLT1LGC5) Takeda global kinase panel
[12] = target: Cyclin-G-associated kinase (Homo sapiens, UniProt O14976); assay: GAK(GAK1PGF1) Takeda global kinase panel
Rhodopsin kinase GRK1 = Rhodopsin kinase GRK1 (Homo sapiens, UniProt Q15835); assay: RHODK [GRK1(GRK1LGA1)] Takeda global kinase panel
[13] = target: G protein-coupled receptor kinase 4 (Homo sapiens, UniProt P32298); assay: GRK4(GRK4LGRI) Takeda global kinase panel
[14] = target: Mast/stem cell growth factor receptor Kit (Homo sapiens, UniProt P10721); assay: Kit(KIT1MGC1) Takeda global kinase panel
[15] = target: Tyrosine-protein kinase Lck (Homo sapiens, UniProt P06239); assay: Lck(LCK1LGF1) Takeda global kinase panel
[16] = target: Mitogen-activated protein kinase kinase kinase 7 (Homo sapiens, UniProt O43318); assay: TAK1(M3K7CHY1) Takeda global kinase panel
[17] = target: Mitogen-activated protein kinase 3 (Homo sapiens, UniProt P27361); assay: ERK1(MAP3LGY1) Takeda global kinase panel
[18] = target: Muscle, skeletal receptor tyrosine-protein kinase (Homo sapiens, UniProt O15146); assay: MUSK(MUSKLGY1) Takeda global kinase panel
[19] = target: Serine/threonine-protein kinase Nek9 (Homo sapiens, UniProt Q8TD19); assay: Nek9(NEK9LGF1) Takeda global kinase panel
[20] = target: NUAK family SNF1-like kinase 2 (Homo sapiens, UniProt Q9H093); assay: NuaK2(NUA2LHY1) Takeda global kinase panel
[21] = target: Serine/threonine-protein kinase PLK4 (Homo sapiens, UniProt O00444); assay: PLK4(PLK4LGF1) Takeda global kinase panel
[22] = target: 5'-AMP-activated protein kinase catalytic subunit alpha-2 (Homo sapiens, UniProt P54646); assay: AMPKalpha2(PRA2LGY1) Takeda global kinase panel
[23] = target: Protein kinase C epsilon type (Homo sapiens, UniProt Q02156); assay: PKCepsilon(PRKELHY1) Takeda global kinase panel
[24] = target: cGMP-dependent protein kinase 2 (Homo sapiens, UniProt Q13237); assay: PKG2(PRG2LHY1) Takeda global kinase panel
[25] = target: Ribosomal protein S6 kinase alpha-4 (Homo sapiens, UniProt O75676); assay: MSK2(R6A4LGRJ) Takeda global kinase panel
[26] = target: Serine/threonine-protein kinase 32C (Homo sapiens, UniProt Q86UX6); assay: YANK3(S32CLGI1) Takeda global kinase panel
[27] = target: Serine/threonine-protein kinase 4 (Homo sapiens, UniProt Q13043); assay: MST1(STK4LGF1) Takeda global kinase panel
TGF-beta receptor type-1 = TGF-beta receptor type-1 (Homo sapiens, UniProt P36897); assay: TGFbetaR1(TGF1LGF1) Takeda global kinase panel
Activated CDC42 kinase 1 = Activated CDC42 kinase 1 (Homo sapiens, UniProt Q07912); assay: Ack(TNK2LGF1) Takeda global kinase panel
[28] = target: Wee1-like protein kinase 2 (Homo sapiens, UniProt P0C1S8); assay: Wee1B(WE1BLGF1) Takeda global kinase panel
[29] = target: 5-hydroxytryptamine receptor 3A (Homo sapiens) (UniProt P46098); conditions: Compound concentration 10.0 uM
[30] = target: D(3) dopamine receptor (Homo sapiens) (UniProt P35462); conditions: Compound concentration 10.0 uM
[31] = target: D(1B) dopamine receptor (Homo sapiens) (UniProt P21918); conditions: Compound concentration 10.0 uM
[32] = target: Delta-type opioid receptor (Homo sapiens) (UniProt P41143); conditions: Compound concentration 10.0 uM
[33] = target: Alpha-1B adrenergic receptor (Homo sapiens) (UniProt P35368); conditions: Compound concentration 10.0 uM
[34] = target: Beta-2 adrenergic receptor (Homo sapiens) (UniProt P07550); conditions: Compound concentration 10.0 uM
[35] = target: Beta-1 adrenergic receptor (Homo sapiens) (UniProt P08588); conditions: Compound concentration 10.0 uM
[36] = target: Mu-type opioid receptor (Homo sapiens) (UniProt P35372); conditions: Compound concentration 10.0 uM
Mu-type opioid receptor (Homo sapiens), sequence (P35372 whole entry): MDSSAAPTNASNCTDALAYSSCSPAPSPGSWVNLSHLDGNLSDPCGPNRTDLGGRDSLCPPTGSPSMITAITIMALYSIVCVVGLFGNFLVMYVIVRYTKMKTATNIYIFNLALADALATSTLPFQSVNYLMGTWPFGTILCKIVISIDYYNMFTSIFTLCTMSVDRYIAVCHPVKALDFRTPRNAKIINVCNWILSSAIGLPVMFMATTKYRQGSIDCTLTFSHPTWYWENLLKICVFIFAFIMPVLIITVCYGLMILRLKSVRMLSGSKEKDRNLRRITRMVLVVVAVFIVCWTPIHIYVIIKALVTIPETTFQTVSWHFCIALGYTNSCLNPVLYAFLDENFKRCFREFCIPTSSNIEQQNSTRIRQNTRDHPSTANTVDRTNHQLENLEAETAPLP

Serine/threonine-protein kinase Nek9, sequence (Q8TD19 whole entry): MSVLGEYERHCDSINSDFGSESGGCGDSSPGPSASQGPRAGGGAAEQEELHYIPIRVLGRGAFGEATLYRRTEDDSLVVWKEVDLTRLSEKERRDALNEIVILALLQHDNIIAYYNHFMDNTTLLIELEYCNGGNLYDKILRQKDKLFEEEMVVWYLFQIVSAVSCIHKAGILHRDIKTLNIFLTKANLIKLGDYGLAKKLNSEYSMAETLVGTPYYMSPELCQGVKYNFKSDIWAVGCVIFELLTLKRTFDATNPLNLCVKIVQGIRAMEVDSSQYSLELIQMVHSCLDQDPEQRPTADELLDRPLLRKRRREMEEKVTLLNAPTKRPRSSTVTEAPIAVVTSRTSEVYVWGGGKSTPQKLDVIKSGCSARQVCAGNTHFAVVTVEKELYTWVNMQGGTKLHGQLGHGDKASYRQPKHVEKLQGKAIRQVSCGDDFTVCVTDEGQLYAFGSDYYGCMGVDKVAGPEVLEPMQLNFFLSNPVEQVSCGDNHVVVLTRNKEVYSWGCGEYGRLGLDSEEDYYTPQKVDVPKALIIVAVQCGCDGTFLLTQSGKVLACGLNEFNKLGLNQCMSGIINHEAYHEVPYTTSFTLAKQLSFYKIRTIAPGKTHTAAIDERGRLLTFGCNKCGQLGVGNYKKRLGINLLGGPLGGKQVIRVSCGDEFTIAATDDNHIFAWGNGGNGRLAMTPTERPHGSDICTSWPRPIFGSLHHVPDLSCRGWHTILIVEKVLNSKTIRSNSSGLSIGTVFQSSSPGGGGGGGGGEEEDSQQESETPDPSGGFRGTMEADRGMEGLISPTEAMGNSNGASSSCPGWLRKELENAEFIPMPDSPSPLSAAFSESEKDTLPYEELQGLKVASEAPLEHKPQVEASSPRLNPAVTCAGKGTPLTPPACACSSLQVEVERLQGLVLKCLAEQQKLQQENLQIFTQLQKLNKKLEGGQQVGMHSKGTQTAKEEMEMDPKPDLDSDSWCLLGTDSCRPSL
D(3) dopamine receptor (Homo sapiens), sequence (P35462 whole entry): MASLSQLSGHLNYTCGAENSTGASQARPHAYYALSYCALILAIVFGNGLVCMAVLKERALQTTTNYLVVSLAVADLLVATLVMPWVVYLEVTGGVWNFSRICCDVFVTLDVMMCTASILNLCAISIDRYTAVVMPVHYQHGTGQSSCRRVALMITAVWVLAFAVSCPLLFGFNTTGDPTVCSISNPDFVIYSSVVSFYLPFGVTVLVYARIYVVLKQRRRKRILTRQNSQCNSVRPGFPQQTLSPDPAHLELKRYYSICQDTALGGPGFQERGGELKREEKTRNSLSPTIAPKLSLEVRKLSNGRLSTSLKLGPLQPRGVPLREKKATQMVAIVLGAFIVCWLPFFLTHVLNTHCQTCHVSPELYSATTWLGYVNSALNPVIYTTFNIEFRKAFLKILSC
Ribosomal protein S6 kinase alpha-4, sequence (O75676 whole entry): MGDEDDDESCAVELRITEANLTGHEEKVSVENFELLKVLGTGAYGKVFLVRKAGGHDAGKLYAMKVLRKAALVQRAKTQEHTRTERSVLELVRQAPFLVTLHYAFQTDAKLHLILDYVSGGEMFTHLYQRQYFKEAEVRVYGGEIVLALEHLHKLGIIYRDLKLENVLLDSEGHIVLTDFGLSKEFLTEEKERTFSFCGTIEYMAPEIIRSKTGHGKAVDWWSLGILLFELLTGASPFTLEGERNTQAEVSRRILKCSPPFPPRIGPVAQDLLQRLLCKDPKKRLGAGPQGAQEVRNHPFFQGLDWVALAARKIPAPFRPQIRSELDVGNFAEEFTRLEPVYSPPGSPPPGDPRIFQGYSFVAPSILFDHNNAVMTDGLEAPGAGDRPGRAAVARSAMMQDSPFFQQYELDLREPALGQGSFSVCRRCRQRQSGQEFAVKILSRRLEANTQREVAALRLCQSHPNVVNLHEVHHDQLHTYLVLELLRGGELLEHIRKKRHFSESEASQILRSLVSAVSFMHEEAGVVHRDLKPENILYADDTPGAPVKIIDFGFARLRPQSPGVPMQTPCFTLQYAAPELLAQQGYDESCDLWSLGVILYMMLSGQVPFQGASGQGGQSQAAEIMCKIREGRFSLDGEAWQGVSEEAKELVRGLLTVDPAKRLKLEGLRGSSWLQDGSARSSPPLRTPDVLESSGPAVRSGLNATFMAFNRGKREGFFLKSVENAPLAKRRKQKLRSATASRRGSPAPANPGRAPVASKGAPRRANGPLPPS
Delta-type opioid receptor (Homo sapiens), sequence (P41143 whole entry): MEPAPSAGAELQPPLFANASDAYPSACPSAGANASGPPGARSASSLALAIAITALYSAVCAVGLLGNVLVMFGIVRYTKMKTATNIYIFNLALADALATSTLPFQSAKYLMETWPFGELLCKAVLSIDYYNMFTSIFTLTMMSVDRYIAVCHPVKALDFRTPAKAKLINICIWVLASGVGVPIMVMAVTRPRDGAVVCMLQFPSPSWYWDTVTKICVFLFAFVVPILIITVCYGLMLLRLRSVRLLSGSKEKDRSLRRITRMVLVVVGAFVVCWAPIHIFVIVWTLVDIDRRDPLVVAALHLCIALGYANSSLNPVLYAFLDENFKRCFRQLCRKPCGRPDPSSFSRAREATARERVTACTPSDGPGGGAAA
Serine/threonine-protein kinase 32C, sequence (Q86UX6 whole entry): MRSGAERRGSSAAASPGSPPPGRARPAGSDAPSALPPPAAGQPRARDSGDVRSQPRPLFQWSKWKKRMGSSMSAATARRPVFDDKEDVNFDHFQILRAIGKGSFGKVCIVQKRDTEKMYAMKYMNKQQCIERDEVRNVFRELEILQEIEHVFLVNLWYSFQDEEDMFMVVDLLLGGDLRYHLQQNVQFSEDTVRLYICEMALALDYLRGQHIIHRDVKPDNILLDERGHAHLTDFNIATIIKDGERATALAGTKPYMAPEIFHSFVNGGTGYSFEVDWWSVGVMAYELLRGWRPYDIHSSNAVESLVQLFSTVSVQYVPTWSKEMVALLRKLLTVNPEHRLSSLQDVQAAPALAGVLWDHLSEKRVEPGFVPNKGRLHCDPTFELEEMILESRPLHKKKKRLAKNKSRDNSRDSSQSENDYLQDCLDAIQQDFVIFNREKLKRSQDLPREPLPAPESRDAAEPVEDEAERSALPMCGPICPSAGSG
D(1B) dopamine receptor (Homo sapiens), sequence (P21918 whole entry): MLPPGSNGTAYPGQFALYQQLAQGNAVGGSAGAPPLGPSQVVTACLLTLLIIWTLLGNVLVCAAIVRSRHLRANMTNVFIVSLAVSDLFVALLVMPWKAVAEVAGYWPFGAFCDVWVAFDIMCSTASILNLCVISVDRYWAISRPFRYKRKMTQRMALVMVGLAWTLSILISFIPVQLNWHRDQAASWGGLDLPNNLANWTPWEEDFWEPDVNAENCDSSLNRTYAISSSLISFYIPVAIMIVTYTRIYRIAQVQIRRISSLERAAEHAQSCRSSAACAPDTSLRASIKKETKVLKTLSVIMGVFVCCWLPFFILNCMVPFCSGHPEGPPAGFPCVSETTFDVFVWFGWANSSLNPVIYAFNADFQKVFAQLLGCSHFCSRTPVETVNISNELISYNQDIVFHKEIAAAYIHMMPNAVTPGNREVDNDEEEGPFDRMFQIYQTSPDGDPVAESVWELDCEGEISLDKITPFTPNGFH
Ephrin type-B receptor 4, sequence (P54760 whole entry): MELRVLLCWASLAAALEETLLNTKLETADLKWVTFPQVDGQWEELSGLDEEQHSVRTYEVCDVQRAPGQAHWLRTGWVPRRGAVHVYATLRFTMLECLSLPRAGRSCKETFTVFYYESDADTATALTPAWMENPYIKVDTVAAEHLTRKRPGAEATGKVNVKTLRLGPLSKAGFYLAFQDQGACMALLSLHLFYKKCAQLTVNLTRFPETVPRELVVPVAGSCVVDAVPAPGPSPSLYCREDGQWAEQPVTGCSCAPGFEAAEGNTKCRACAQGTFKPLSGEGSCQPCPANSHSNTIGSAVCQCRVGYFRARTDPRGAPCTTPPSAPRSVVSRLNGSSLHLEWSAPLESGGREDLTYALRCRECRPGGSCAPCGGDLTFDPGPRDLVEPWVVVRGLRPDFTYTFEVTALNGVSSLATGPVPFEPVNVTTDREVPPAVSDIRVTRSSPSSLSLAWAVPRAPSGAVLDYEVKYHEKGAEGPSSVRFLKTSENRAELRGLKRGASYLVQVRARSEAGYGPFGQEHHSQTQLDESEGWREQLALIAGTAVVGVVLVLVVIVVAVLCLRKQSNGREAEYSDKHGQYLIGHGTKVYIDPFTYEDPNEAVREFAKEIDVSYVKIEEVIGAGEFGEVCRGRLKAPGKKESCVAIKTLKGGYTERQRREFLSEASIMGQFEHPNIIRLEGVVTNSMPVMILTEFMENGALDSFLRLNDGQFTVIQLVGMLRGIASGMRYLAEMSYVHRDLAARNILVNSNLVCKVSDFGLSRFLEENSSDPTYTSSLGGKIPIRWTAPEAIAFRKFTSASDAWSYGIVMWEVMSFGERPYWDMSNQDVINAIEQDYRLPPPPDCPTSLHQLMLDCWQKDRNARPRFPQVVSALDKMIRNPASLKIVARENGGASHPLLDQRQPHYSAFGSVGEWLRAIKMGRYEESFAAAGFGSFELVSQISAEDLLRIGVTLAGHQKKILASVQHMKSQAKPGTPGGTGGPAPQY

CN1C(=O)[C@@H](N2CCc3c(nn(Cc4ccccc4)c3Br)C2=O)COc2ccccc21 [TP-030-2]
1000 nM: IC50 [5] | IC50 [6] | IC50 [7] | IC50 [8] | IC50 [9] | IC50 (Myotonin-protein kinase) | IC50 (Ephrin type-A receptor 5) | IC50 (Ephrin type-A receptor 6) | IC50 (Ephrin type-B receptor 3) | IC50 (Ephrin type-B receptor 4) | IC50 [10] | IC50 [11] | IC50 [12] | IC50 (Rhodopsin kinase GRK1) | IC50 [13] | IC50 [14] | IC50 [15] | IC50 [16] | IC50 [17] | IC50 [18] | IC50 [19] | IC50 [20] | IC50 [21] | IC50 [22] | IC50 [23] | IC50 [24] | IC50 [25] | IC50 [26] | IC50 [27] | IC50 (TGF-beta receptor type-1) | IC50 (Activated CDC42 kinase 1) | IC50 [28]
inactive: inhibition [1] 7% | inhibition [2] 1% | inhibition [3] 33% | inhibition [4] -2% | inhibition [29] 37.7% | inhibition [30] 3.31% | inhibition [31] 41.7% | inhibition [32] 30.1% | inhibition [33] -0.19% | inhibition [34] 11.2% | inhibition [35] -4% | inhibition [36] 27%
